Data from patent publication US20060004088A1, “Furan derivatives for preventing and curing osteoporosis and pharmaceutical compositions containing the same” (OCT INC., priority 2002, published 2006).

Tested on: osteoclast pregenitor cells
Assay: Inhibition rates of furan derivatives versus osteoclast formation (TRAP staining)
Assay type: cell-based, mice
Conditions: TRAP-positive multinucleated cells, untreated control set as 100%
Experimental: First, bone marrow cells were isolated, as follow. After sacrificing 7-9 week female mice by cervical dislocation, femur and tibia were excised aseptically while removing attached soft tissues. After cutting both ends of long bones, 1 ml of an enzyme solution, containing 0.1% collagenase (Gibco), 0.05% trypsin and 0.5 mM EDTA (Gibco), was injected to the bone marrow cavity at one end using a syringe with a 26-guage needle, and bone marrow was then collected. After shaking the recovered bone marrow for 30 min, bone marrow cells were collected, and cultured in α-minimum essential medium (α-MEM) supplemented with 10% FBS for 24 hrs. Then, non-adherent cells were collected, which are osteoclast pregenitors, aliquotted onto culture plates at a density of 2×10^5 cells per well, and cultured for 8 days in α-MEM supplemented with 20 ng/ml of macrophage-colony stimulating factor (M-CSF, Peprotech, USA) and 30 ng/ml RANKL (Peprotech, USA). During the 8 days of culturing, the cells were treated with the Compound 1. Thereafter, osteoclast formation was investigated by fixing the cultured cells and then carrying out TRAP staining, as described in the following Experimental Example 2.2. In addition, resorption activity of osteoclasts was investigated by measuring the absorption area after removing osteoclasts in cultures in calcium phosphate-coated plates, as described in Experimental Example 2.3, below.
After cell culture, the adherent cells were washed with PBS, and TRAP staining was performed, as follows. After being fixed with citrate-acetate-formaldehyde for 5 min, the cells were incubated for 1 hr in acetate buffer (prewarmed at 37° C., pH 5.0) containing naphthol AS-BI phosphate, fast Garnet GBC and 7 mM tartrate buffer (pH 5.0). TRAP-positive multinucleated cells having 3 or more nuclei were considered as osteoclasts.
Osteoclast pregenitor cells were isolated, and their differentiation to mature osteoclasts was induced, according to the same method as in the Experimental Example 2-1, while treated with each of the furan derivatives of the present invention. According to the same method as in the Experimental Example 2-2, TRAP staining performed, and TRAP-positive multinucleated cells were counted. An inhibition rate of each furan derivative against osteoclast formation was expressed as percentage, wherein the number of stained cells in a control not treated the furan derivative was arbitrarily set as 100% (Tables 14 to 16).

Compound	Inhibition rate against osteoclast formation, % (0.1 μM) [%]	Inhibition rate against osteoclast formation, % (1 μM) [%]	Inhibition rate against osteoclast formation, % (10 μM) [%]
Cc1ccc(F)c(NC(=O)c2ccc(COc3ccc(C)cc3[N+](=O)[O-])o2)c1 [Compound 155]	0	0	27.92
O=C(Nc1cccc(Cl)c1Cl)c1ccc(COc2ccccc2[N+](=O)[O-])o1 [Compound 156]	13.01	18.26	98.48
COc1ccccc1NC(=O)c1ccc(COc2cc(C)ccc2C)o1 [Compound 157]	4.87	10.71	97.46
Cc1ccc(F)c(NC(=O)c2ccc(COc3ccccc3[N+](=O)[O-])o2)c1 [Compound 158]	0	0	23.57
CC(=O)c1ccc(NC(=O)c2ccc(COc3cccc4ccccc34)o2)cc1 [Compound 160]	0	0	38.96
O=C(Nc1cc(F)ccc1F)c1ccc(COc2ccccc2Cl)o1 [Compound 161]	0	0	11.33
CCc1cccc(NC(=O)c2ccc(COc3ccc(F)cc3)o2)c1 [Compound 163]	0	0	51.2
CCCc1ccc(OCc2ccc(C(=O)Nc3ccc(OC)c(OC)c3)o2)cc1 [Compound 164]	0	0	30.52
CCOc1ccc(OCc2ccc(C(=O)NC(C)(C)C)o2)cc1 [Compound 165]	12.35	28.76	88.75
COc1ccccc1NC(=O)c1ccc(COc2ccccc2OC)o1 [Compound 166]	0	0	1.08
COC(=O)c1ccccc1NC(=O)c1ccc(COc2ccc(Cl)cc2Cl)o1 [Compound 167]	0	22.42	96.47
CCc1ccc(OCc2ccc(C(=O)Nc3cc(C)cc(C)c3)o2)cc1 [Compound 169]	0	0	21.04
CCCc1ccc(OCc2ccc(C(=O)Nc3cc(Cl)ccc3Cl)o2)cc1 [Compound 170]	0	0	16.31
COc1ccc(C)cc1NC(=O)c1ccc(COc2cccc(Cl)c2)o1 [Compound 171]	0	0	0.42
Cc1cc(OCc2ccc(C(=O)Nc3cccc(C)c3C)o2)ccc1Cl [Compound 172]	0	0	11.08
Cc1cc(OCc2ccc(C(=O)Nc3ccc(Cl)cc3)o2)ccc1Cl [Compound 173]	0	0	8.03
COc1ccccc1OCc1ccc(C(=O)Nc2ccccc2Cl)o1 [Compound 174]	0	0	14.11

Compound	Inhibition rate against osteoclast formation, % (0.1 μM) [%]	Inhibition rate against osteoclast formation, % (1 μM) [%]	Inhibition rate against osteoclast formation, % (10 μM) [%]
COc1ccccc1OCc1ccc(C(=O)Nc2ccc(C)c(C)c2)o1 [Compound 175]	0	0	33.33
CCCc1ccc(OCc2ccc(C(=O)Nc3ccc(F)cc3F)o2)c(OC)c1 [Compound 176]	0	0	15.56
Cc1cc(C)cc(OCc2ccc(C(=O)Nc3ccccc3F)o2)c1 [Compound 177]	0	0	11.03
O=C(Nc1ccccc1F)c1ccc(COc2ccc(Cl)cc2)o1 [Compound 178]	0	0	14.09
Cc1cccc(C)c1NC(=O)c1ccc(COc2ccc(Cl)cc2)o1 [Compound 179]	0	0	34.81
COC(=O)c1ccccc1NC(=O)c1ccc(COc2ccc(C)c(C)c2)o1 [Compound 180]	0	0	8.15
O=C(Nc1cc(C(F)(F)F)ccc1Cl)c1ccc(COc2ccc(Cl)cc2)o1 [Compound 181]	0	0	56.96
COc1cc([N+](=O)[O-])ccc1NC(=O)c1ccc(COc2ccc(Cl)cc2)o1 [Compound 182]	0	0	4.34
O=C(Nc1ccccc1[N+](=O)[O-])c1ccc(COc2ccccc2Cl)o1 [Compound 183]	0	0	57.39
O=C(Nc1ccc(F)cc1F)c1ccc(COc2c(F)c(F)cc(F)c2F)o1 [Compound 185]	0	0	13.64
Cc1ccc(OCc2ccc(C(=O)Nc3ccc(F)c(F)c3)o2)cc1C [Compound 186]	0	0	21.09
CC(=O)Nc1cccc(NC(=O)c2ccc(COc3c(F)c(F)c(F)c(F)c3F)o2)c1 [Compound 187]		37.05	36.74
COc1ccc(NC(=O)c2ccc(COc3ccccc3Br)o2)c(OC)c1 [Compound 188]	0	0	7.6
COc1ccccc1NC(=O)c1ccc(COc2ccc(C(C)(C)C)cc2)o1 [Compound 189]	0	0	48.99
O=C(Nc1ccc(I)cc1)c1ccc(COc2ccccc2Br)o1 [Compound 190]	0	0	5.12
O=C(Nc1cccc([N+](=O)[O-])c1)c1ccc(COc2ccc(I)cc2)o1 [Compound 191]	0	0	8.06
